Measured values as given in ChEMBL document CHEMBL3588848, “Dihydropyrrolopyrazol-6-one MCHR1 antagonists for the treatment of obesity: Insights on in vivo efficacy from a novel FLIPR assay setup” (Bioorg Med Chem Lett, 2015).

Columns and labels:
[1] = Displacement of [Phe13, [125I]Tyr19]-MCH from human MCHR1 E4Q/A5T double mutant expressed in HEK293 cell membranes after 90 mins by scintillation counting analysis
hERG (KCNH2) [2] = target: T1, hERG (KCNH2) (Homo sapiens, UniProt Q12809); assay: Inhibition of human ERG expressed in CHO cells at 1 uM by automated whole-cell patch clamp electrophysiology system relative to control; format: cell-based; details: CHO cells expressing human ERG
T1 sequence (Q12809 whole entry): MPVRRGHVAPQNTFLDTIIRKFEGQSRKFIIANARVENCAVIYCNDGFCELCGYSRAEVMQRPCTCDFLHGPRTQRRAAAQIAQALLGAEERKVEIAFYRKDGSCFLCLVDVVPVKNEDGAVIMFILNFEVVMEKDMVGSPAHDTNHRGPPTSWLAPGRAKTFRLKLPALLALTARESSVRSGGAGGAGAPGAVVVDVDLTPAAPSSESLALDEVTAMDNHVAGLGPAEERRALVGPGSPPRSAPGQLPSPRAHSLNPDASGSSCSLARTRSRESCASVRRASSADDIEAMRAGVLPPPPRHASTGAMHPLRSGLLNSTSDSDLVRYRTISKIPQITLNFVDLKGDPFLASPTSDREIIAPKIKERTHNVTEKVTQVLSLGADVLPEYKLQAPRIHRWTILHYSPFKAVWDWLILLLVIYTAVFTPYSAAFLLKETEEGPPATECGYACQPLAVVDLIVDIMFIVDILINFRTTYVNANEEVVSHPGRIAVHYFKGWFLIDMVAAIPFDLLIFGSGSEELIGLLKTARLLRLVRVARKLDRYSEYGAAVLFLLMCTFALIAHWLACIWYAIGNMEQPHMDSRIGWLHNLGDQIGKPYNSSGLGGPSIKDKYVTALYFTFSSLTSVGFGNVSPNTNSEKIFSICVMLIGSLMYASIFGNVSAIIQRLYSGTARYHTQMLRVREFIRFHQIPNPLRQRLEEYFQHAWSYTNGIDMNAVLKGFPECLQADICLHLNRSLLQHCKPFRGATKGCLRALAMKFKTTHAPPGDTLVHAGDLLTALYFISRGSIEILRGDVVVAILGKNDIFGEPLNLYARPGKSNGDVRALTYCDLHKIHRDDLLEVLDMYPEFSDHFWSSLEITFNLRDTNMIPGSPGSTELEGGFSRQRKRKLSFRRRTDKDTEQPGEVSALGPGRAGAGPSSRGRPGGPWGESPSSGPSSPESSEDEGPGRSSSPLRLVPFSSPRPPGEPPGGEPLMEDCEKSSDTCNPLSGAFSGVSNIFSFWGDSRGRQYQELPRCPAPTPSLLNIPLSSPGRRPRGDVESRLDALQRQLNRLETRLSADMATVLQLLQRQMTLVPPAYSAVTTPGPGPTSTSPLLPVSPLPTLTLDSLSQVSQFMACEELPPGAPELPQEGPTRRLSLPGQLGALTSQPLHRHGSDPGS

[3] = target: Melanin-concentrating hormone receptor 1 (Homo sapiens, UniProt Q99705); assay: Antagonist activity at human MCHR1 expressed in HEK293 cells assessed as inhibition of MCH-stimulated Ca2+ influx preincubated for 120 mins followed by MCH challenge by FLIPR assay; format: functional, cell-based
Sequence of Melanin-concentrating hormone receptor 1 (Homo sapiens, UniProt Q99705) (Q99705 whole entry): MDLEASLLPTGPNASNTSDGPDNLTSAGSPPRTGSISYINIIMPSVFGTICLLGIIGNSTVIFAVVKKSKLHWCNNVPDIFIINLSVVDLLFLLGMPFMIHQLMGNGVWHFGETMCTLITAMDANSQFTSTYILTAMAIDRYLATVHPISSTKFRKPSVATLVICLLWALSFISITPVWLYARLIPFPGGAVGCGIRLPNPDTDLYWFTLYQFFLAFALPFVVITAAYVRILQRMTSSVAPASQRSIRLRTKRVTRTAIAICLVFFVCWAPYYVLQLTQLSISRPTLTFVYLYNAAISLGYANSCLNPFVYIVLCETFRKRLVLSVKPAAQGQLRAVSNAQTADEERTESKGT

Rattus norvegicus [4] = assay: Antiobesity activity in Sprague-Dawley rat assessed as 2-(4-chlorophenyl)-5-(4-(2-hydroxy-2-methylpropoxy)-3-methoxyphenyl)-4,5-dihydropyrrolo[3,4-c]pyrazol-6(2H)-one-mediated body weight loss at 30 mg/kg, po qd administered 1 hr prior to onset of dark cycle measured for 4 days relative to vehicle-treated control; format: functional
Plasma [5] = assay: Fraction unbound in Sprague-Dawley rat plasma assessed as 2-(4-chlorophenyl)-5-(4-(2-hydroxy-2-methylpropoxy)-3-methoxyphenyl)-4,5-dihydropyrrolo[3,4-c]pyrazol-6(2H)-one at 30 mg/kg, po qd; format: ADME, organism-based; details: in vivo
Plasma [6] = assay: Plasma concentration in Sprague-Dawley rat assessed as 2-(4-chlorophenyl)-5-(4-(2-hydroxy-2-methylpropoxy)-3-methoxyphenyl)-4,5-dihydropyrrolo[3,4-c]pyrazol-6(2H)-one at 30 mg/kg, po qd measured at 20 hrs post dose; format: ADME, organism-based; details: in vivo
Brain [7] = assay: Drug uptake in Sprague-Dawley rat brain assessed as 2-(4-chlorophenyl)-5-(4-(2-hydroxy-2-methylpropoxy)-3-methoxyphenyl)-4,5-dihydropyrrolo[3,4-c]pyrazol-6(2H)-one at 30 mg/kg, po qd measured at 20 hrs post dose; format: ADME, organism-based; details: in vivo, read-out: Drug uptake
[8] = target: T2, Melanin-concentrating hormone receptor 1 (Rattus norvegicus, UniProt P97639); assay: Antagonist activity at rat MCHR1 assessed as 2-(4-chlorophenyl)-5-(4-(2-hydroxy-2-methylpropoxy)-3-methoxyphenyl)-4,5-dihydropyrrolo[3,4-c]pyrazol-6(2H)-one
T2 sequence (P97639 whole entry): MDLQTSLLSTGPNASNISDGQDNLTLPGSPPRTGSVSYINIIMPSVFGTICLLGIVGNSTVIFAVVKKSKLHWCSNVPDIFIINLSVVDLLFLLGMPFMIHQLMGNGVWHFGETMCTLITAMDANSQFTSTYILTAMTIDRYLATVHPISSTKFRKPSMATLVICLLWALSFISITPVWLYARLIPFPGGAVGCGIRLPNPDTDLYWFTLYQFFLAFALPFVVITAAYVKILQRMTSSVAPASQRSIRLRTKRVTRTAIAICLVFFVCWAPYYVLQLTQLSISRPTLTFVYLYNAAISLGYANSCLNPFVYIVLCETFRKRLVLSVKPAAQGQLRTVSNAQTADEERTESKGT

[9] = Lipophilicity, log P of the compound by HPLC analysis; format: physicochemical
hERG (KCNH2) [10] = target: T1, hERG (KCNH2); assay: Inhibition of human ERG expressed in CHO cells at 0.3 uM by automated whole-cell patch clamp electrophysiology system relative to control; format: cell-based; details: CHO cells expressing human ERG
Rattus norvegicus [11] = assay: Antiobesity activity in Sprague-Dawley rat assessed as body weight loss at 15 mg/kg, po qd administered 1 hr prior to onset of dark cycle measured for 7 days relative to vehicle-treated control; format: functional
[12] = Fraction unbound in Sprague-Dawley rat plasma at 15 mg/kg, po qd; format: ADME, organism-based
[13] = Plasma concentration in Sprague-Dawley rat at 15 mg/kg, po qd measured at 20 hrs post dose; format: ADME, organism-based
[14] = Drug uptake in Sprague-Dawley rat brain at 15 mg/kg, po qd measured at 20 hrs post dose; format: ADME, organism-based; details: read-out: Drug uptake
[15] = target: T2, Melanin-concentrating hormone receptor 1; assay: Antagonist activity at rat MCHR1 assessed as 6-(4-chlorophenyl)-3-(4-(2-hydroxy-2-methylpropoxy)-3-methoxyphenyl)thieno[3,2-d]pyrimidin-4(3H)-one
Rattus norvegicus [16] = assay: Antiobesity activity in Sprague-Dawley rat assessed as 6-(4-chlorophenyl)-3-(4-(2-hydroxy-2-methylpropoxy)-3-methoxyphenyl)thieno[3,2-d]pyrimidin-4(3H)-one-mediated body weight loss at 10 mg/kg, po qd administered 1 hr prior to onset of dark cycle measured for 7 days relative to vehicle-treated control; format: functional
Plasma [17] = assay: Fraction unbound in Sprague-Dawley rat plasma assessed as 6-(4-chlorophenyl)-3-(4-(2-hydroxy-2-methylpropoxy)-3-methoxyphenyl)thieno[3,2-d]pyrimidin-4(3H)-one at 10 mg/kg, po qd; format: ADME, organism-based; details: in vivo
Plasma [18] = assay: Plasma concentration in Sprague-Dawley rat assessed as 6-(4-chlorophenyl)-3-(4-(2-hydroxy-2-methylpropoxy)-3-methoxyphenyl)thieno[3,2-d]pyrimidin-4(3H)-one at 10 mg/kg, po qd measured at 20 hrs post dose; format: ADME, organism-based; details: in vivo
Brain [19] = assay: Drug uptake in Sprague-Dawley rat brain assessed as 6-(4-chlorophenyl)-3-(4-(2-hydroxy-2-methylpropoxy)-3-methoxyphenyl)thieno[3,2-d]pyrimidin-4(3H)-one at 10 mg/kg, po qd measured at 20 hrs post dose; format: ADME, organism-based; details: in vivo
[20] = Ratio of unbound concentration in Sprague-Dawley rat brain assessed as 6-(4-chlorophenyl)-3-(4-(2-hydroxy-2-methylpropoxy)-3-methoxyphenyl)thieno[3,2-d]pyrimidin-4(3H)-one at 10 mg/kg, po qd to Ki for rat MCHR1 assessed as 6-(4-chlorophenyl)-3-(4-(2-hydroxy-2-methylpropoxy)-3-methoxyphenyl)thieno[3,2-d]pyrimidin-4(3H)-one; format: ADME, organism-based; details: in vivo
[21] = Ratio of drug level in brain to plasma in Sprague-Dawley rat assessed as 6-(4-chlorophenyl)-3-(4-(2-hydroxy-2-methylpropoxy)-3-methoxyphenyl)thieno[3,2-d]pyrimidin-4(3H)-one at 10 mg/kg, po qd measured at 20 hrs post dose
[22] = target: Voltage-gated inwardly rectifying potassium channel KCNH2 (Homo sapiens, UniProt Q12809); assay: Inhibition of human ERG expressed in CHO cells by automated whole-cell patch clamp electrophysiology system; format: cell-based
Sequence of Voltage-gated inwardly rectifying potassium channel KCNH2 (Q12809 whole entry): as the sequence (Q12809 whole entry) above

[23] = target: T2, Melanin-concentrating hormone receptor 1; assay: Antagonist activity at rat MCHR1
Rattus norvegicus [24] = assay: Antiobesity activity in Sprague-Dawley rat assessed as body weight loss at 1 mg/kg, po qd administered 1 hr prior to onset of dark cycle measured for 7 days relative to vehicle-treated control; format: functional
Rattus norvegicus [25] = assay: Antiobesity activity in Sprague-Dawley rat assessed as body weight loss at 3 mg/kg, po qd administered 1 hr prior to onset of dark cycle measured for 7 days relative to vehicle-treated control; format: functional
Rattus norvegicus [26] = assay: Antiobesity activity in Sprague-Dawley rat assessed as body weight loss at 10 mg/kg, po qd administered 1 hr prior to onset of dark cycle measured for 7 days relative to vehicle-treated control; format: functional
[27] = Fraction unbound in Sprague-Dawley rat plasma at 1 mg/kg, po qd; format: ADME, organism-based
[28] = Fraction unbound in Sprague-Dawley rat plasma at 3 mg/kg, po qd; format: ADME, organism-based
[29] = Fraction unbound in Sprague-Dawley rat plasma at 10 mg/kg, po qd; format: ADME, organism-based
[30] = Plasma concentration in Sprague-Dawley rat at 1 mg/kg, po qd measured at 20 hrs post dose; format: ADME, organism-based
[31] = Plasma concentration in Sprague-Dawley rat at 3 mg/kg, po qd measured at 20 hrs post dose; format: ADME, organism-based
[32] = Plasma concentration in Sprague-Dawley rat at 10 mg/kg, po qd measured at 20 hrs post dose; format: ADME, organism-based
Brain [33] = assay: Drug uptake in Sprague-Dawley rat brain at 1 mg/kg, po qd measured at 20 hrs post dose; format: ADME, organism-based; details: in vivo, BLD = below limit of detection
[34] = Drug uptake in Sprague-Dawley rat brain at 3 mg/kg, po qd measured at 20 hrs post dose; format: ADME, organism-based; details: read-out: Drug uptake
[35] = Drug uptake in Sprague-Dawley rat brain at 10 mg/kg, po qd measured at 20 hrs post dose; format: ADME, organism-based; details: read-out: Drug uptake
[36] = Ratio of unbound concentration in Sprague-Dawley rat brain at 3 mg/kg, po qd to Ki for rat MCHR1; format: ADME, organism-based; details: in vivo
[37] = Ratio of unbound concentration in Sprague-Dawley rat brain at 10 mg/kg, po qd to Ki for rat MCHR1; format: ADME, organism-based; details: in vivo

CN[C@@H]1CCN(c2ccc(N3Cc4cn(-c5ccc(Cl)cc5)nc4C3=O)cn2)C1
Ki [1]: 1.3 nM | inhibition at 1 µM (hERG (KCNH2) [2]): 50%

COc1cc(N2Cc3cn(-c4ccc(Cl)cc4)nc3C2=O)ccc1OCC(C)O (configuration not stated)
Ki [1]: 13 nM

CC(C)(C)NC1CCN(c2ccc(N3Cc4cn(-c5ccc(Cl)cc5)nc4C3=O)cn2)C1 (configuration not stated)
Ki [1]: 2.7 nM | inhibition at 1 µM (hERG (KCNH2) [2]): 71%

COc1cc(N2Cc3nn(-c4ccc(Cl)cc4)cc3C2=O)ccc1OC[C@H](O)C1CC1
Ki [1]: 41 nM

COc1cc(-n2cnc3cc(-c4ccc(Cl)cc4)sc3c2=O)ccc1OCC(C)(C)O
Ki [1]: 7.9 nM | IC50 [3]: 13 nM

COc1cc(N2Cc3cn(-c4ccc(Cl)cc4)nc3C2=O)ccc1OCC(C)(C)OC(=O)CN
Activity (Rattus norvegicus [4]): 1.8% | Fu (Plasma [5]): 1% | concentration (Plasma [6]): 2560 nM | concentration (Brain [7]): 1060 nM | Ki [8]: 3.8 nM

N[C@H]1CCN(c2ccc(N3Cc4cn(-c5ccc(Cl)cc5)nc4C3=O)cn2)C1
Ki [1]: 2.1 nM | inhibition at 1 µM (hERG (KCNH2) [2]): 58%

COc1cc(N2Cc3nn(-c4ccc(Cl)cc4)cc3C2=O)ccc1OCC(C)O (configuration not stated)
Ki [1]: 334 nM

COc1cc(N2Cc3cn(-c4ccc(Cl)cc4)nc3C2=O)ccc1OC[C@H](O)C1CC1
Ki [1]: 9 nM

COc1cc(N2Cc3nn(-c4ccc(Cl)cc4)nc3C2=O)ccc1OCC(O)C1CC1 (racemic)
Ki [1]: 112 nM

COc1cc(N2Cc3nn(-c4ccc(Cl)cc4)nc3C2=O)ccc1OCCN1CCCC1
Ki [1]: 2.3 nM | logP [9]: 3.3 | inhibition at 0.3 µM (hERG (KCNH2) [10]): 68%

CN(C)[C@H]1CCN(c2ccc(N3Cc4cn(-c5ccc(Cl)cc5)nc4C3=O)cn2)C1
Ki [1]: 0.7 nM | inhibition at 1 µM (hERG (KCNH2) [2]): 50%

CNC1CCN(c2ccc(N3Cc4cn(-c5ccc(Cl)cc5)nc4C3=O)cc2)C1 (configuration not stated)
Ki [1]: 0.8 nM | inhibition at 0.3 µM (hERG (KCNH2) [10]): 51%

CC(=O)N(C)C1CCN(c2ccc(N3Cc4cn(-c5ccc(Cl)cc5)nc4C3=O)cn2)C1 (configuration not stated)
Ki [1]: 6.5 nM | inhibition at 1 µM (hERG (KCNH2) [2]): 23%

COc1cc(-n2cnc3cc(-c4ccc(Cl)cc4)sc3c2=O)ccc1OCCN1CCCC1
Ki [1]: 1 nM | logP [9]: 3.5 | Activity (Rattus norvegicus [11]): 8.7% | fraction unbound [12]: 0.012 | concentration at 20 h [13]: 378 nM | concentration at 20 h [14]: 654 nM

COc1cc(-n2cnc3cc(-c4ccc(Cl)cc4)sc3c2=O)ccc1OCC(C)(C)OC(=O)CN
Ki [15]: 7.2 nM | Activity (Rattus norvegicus [16]): 8.8% | Fu (Plasma [17]): 0.7% | concentration (Plasma [18]): 546 nM | Drug uptake (Brain [19]): 1610 nM | Ratio [20]: 1.6 | BPR [21]: 1.7

COc1cc(N2Cc3nn(-c4ccc(Cl)cc4)cc3C2=O)ccc1OCC(C)(C)O
Ki [1]: 107 nM

COc1cc(N2Cc3cn(-c4ccc(Cl)cc4)nc3C2=O)ccc1N1CC[C@@H](O)C1
Ki [1]: 7.1 nM | IC50 [22]: > 80 µM

COc1cc(N2Cc3nn(-c4ccc(Cl)cc4)nc3C2=O)ccc1OCC(C)(C)O
Ki [1]: 34 nM

COc1cc(N2Cc3cn(-c4ccc(Cl)cc4)nc3C2=O)ccc1OCC(C)(C)O
Ki [1]: 8 nM | IC50 [3]: 1170 nM

COc1cc(N2Cc3cn(-c4ccc(Cl)cn4)nc3C2=O)ccc1OCC(C)(C)O
Ki [1]: 44 nM

CN[C@H]1CCN(c2ccc(N3Cc4cn(-c5ccc(Cl)cc5)nc4C3=O)cn2)C1
Ki [1]: 0.96 nM | inhibition at 1 µM (hERG (KCNH2) [2]): 66% | Ki [23]: 0.8 nM | Activity (Rattus norvegicus [24]): 2.2% | Activity (Rattus norvegicus [25]): 3.8% | Activity (Rattus norvegicus [26]): 7.5% | fraction unbound [27]: 0.042 | fraction unbound [28]: 0.042 | fraction unbound [29]: 0.042 | concentration at 20 h [30]: 131 nM | concentration at 20 h [31]: 574 nM | concentration at 20 h [32]: 1580 nM | Drug uptake (Brain [33]): BLD | concentration at 20 h [34]: 739 nM | concentration at 20 h [35]: 2770 nM | Ratio [36]: 39 | Ratio [37]: 145 | IC50 [3]: 241 nM

COc1cc(N2Cc3cn(-c4ccc(Cl)cc4)nc3C2=O)ccc1OCCN1CCCC1
Ki [1]: 0.42 nM | logP [9]: 2.8 | inhibition at 0.3 µM (hERG (KCNH2) [10]): 58% | IC50 [3]: 3060 nM

COc1cc(N2Cc3cn(-c4ccc(Cl)cc4)nc3C2=O)ccc1N1C[C@H](O)[C@@H](O)C1
Ki [1]: 11 nM | inhibition at 1 µM (hERG (KCNH2) [2]): < 5% | IC50 [22]: > 30 µM
